Values quoted from earlier work as cited in paper PMC4965013, “Open Source Drug Discovery with the Malaria Box Compound Collection for Neglected Diseases and Beyond” (PLoS Pathogens, 2016).

Tested on: Toxoplasma gondii TS-4
Conditions: ref [84]; read-out: Toxoplasma gondi TS4 EC50; cited from earlier work

COc1ccc(C(=O)Nc2ccc3nc(N4CCCCC4)cc(C)c3c2)cc1OC [MMV019758]
EC50: 25.7 µM
